Data set [1] in a line: Solubility of peptides in DMSO/D5W/5 mM succinate formulation. Particulars: pH 6.
Data set [2] can be described thus: Short-term room temperature stability of Pool 3 mixed with Hiltonol (RP-HPLC). The format is physicochemical. The method, then: A peptide pool (Pool 3) consisting of the five peptides shown in Table 6 below was prepared by dissolution in DMSO and dilution with D5W/Succinate (2 mM) to 2 mg/ml and pooling to a final peptide concentration of 400 μg per ml and a final DMSO concentration of 4%. After preparation, peptides were filtered with a 25 mm Pall PES filter (Cat#4612) and dispensed into Nunc Cryo vials (#375418) in one ml aliquots.
Three samples were prepared by mixing 0.75 ml of Pool3 with 0.25 ml Hiltonol® as planned for the dosage form preparation. The samples were then left at room temperature for 0, 4 and 6 hours and analyzed by RP-HPLC (Table 7). […] As slight increase in a second peak associated with peptide CS6919 was noted, increasing from 14% to 17% and 18% at 4 and 6 hours, respectively. […] Recovery of all peptides was above 90%, indicating no breakdown and loss of any peptides in the final dosage form after 6 hour room temperature incubation.

The nature of data set [3]: pH of peptide solutions in DMSO/D5W, with succinate, and with Hiltonol. The format is physicochemical.
A short description of data set [4]: Peptide diluent matrix (precipitation of DMSO dissolved peptides in various liquids). The data set is classed as physicochemical. On the set-up: key to Precipitation in diluent: Liposome / Precipitation in diluent: PBS pH 7.4 / Precipitation in diluent: Water / Precipitation in diluent: 10% Sucrose / Precipitation in diluent: D5W (5% Dextrose USP Grade Inj): P = precipitation; NP = no precipitation. Particulars: for Precipitation in diluent: 10% Sucrose: 10-20 μL DMSO dissolved peptide added to 10% Sucrose; for Precipitation in diluent: D5W (5% Dextrose USP Grade Inj): 10-20 μL DMSO dissolved peptide added to D5W; for Precipitation in diluent: Liposome: 10-20 μL DMSO dissolved peptide added to Liposome; for Precipitation in diluent: PBS pH 7.4: 10-20 μL DMSO dissolved peptide added to PBS pH 7.4; for Precipitation in diluent: Water: 10-20 μL DMSO dissolved peptide added to Water. The method, then: Additional peptide solubility conditions were tested. Peptides CS6709, CS6712, CS6720, CS6726, and CS6783 were weighed at approximately 10 mg each. The peptides were then dissolved in approximately 200 μL USP grade DMSO to obtain a 50 mg/mL concentration for each peptide. […] The sample appeared to be cloudy. Additional 50 μL increments of DMSO were added to Peptide CS6709 up to 400 μL; for a total of 600 μL of DMSO. […] To dilute the peptides to 400 μg, a PBS pH 7.4 solution without potassium was prepared. All 5 DMSO peptide samples (50 mg/mL) were placed in a single vial for dilution to 400 μg/mL. Each DMSO peptide was added to the vial at 40 μL, except for CS6709 which was at a concentration of 16.67 mg/mL. The volume of CS6709 added to the single vial was 120 μL. The samples were diluted to 400 μg by adding 4.72 mL PBS pH 7.4. Upon addition of the PBS pH 7.4, it was observed that one or more of the peptides had precipitated out. To determine which of the peptides precipitated, Applicants followed the matrix in Table 5 below using very small amounts (10-20 μL) of the DMSO dissolved peptides and adding these peptides to the various liquids.

Data set [5] is described as follows: Direct dissolution of peptides in D5W without DMSO. The data set is classed as physicochemical. Particulars: <1 mg peptide.

For H-SHKLESIKEITNFKDAKQLL-OH, the solubility in data set [1] is greater than 2000 µg/mL.
“H-SKRGVGAKTLLLPDPFLFWPCLEGTRRSL-OH [CS6934]”: in data set [2] (Pool 3 + Hiltonol, 4 Hours RT), the “% Impurity” value is given as 3.06%, the “% Purity” value is recorded as 96.94%, the “Main Peak” value is recorded as 5842.22 and the “Total Impurities” value stood at 184.46. Further, the “Total Peak” value in data set [2] (Pool 3 + Hiltonol, 4 Hours RT) is listed as 6026.68. Besides, in data set [2] (Pool 3 + Hiltonol, 6 Hours RT), the “% Impurity” value turned out to be 3.41%, the “% Purity” value is 96.59%, the “Main Peak” value is given as 6268.16 and the “Total Impurities” value stood at 221.46. Besides, the “Total Peak” value in data set [2] (Pool 3 + Hiltonol, 6 Hours RT) stood at 6489.62. Also, in data set [2] (T0 Pool 3 + Hiltonol, RP-HPLC), the “% Impurity” value came to 3.83%, the “% Purity” value was determined as 96.17%, the “Main Peak” value turned out to be 6147.14 and the “Total Impurities” value is 244.49. Besides, the “Total Peak” value in data set [2] (T0 Pool 3 + Hiltonol, RP-HPLC) came to 6391.63. In data set [3], the “pH of peptides in DMSO/D5W” value worked out at 3.86; the “pH of peptides in DMSO/D5W/5mM S. Succinate spike” value was 6.57; the “pH of peptides in DMSO/D5W/5nnM Succinate and Hiltonol” value turned out to be 6.79.
“H-LLTDRNTSGTTFTLLGVSDYPELQVPLFLVFLA-OH [CS6783]”: in data set [4], the “Precipitation in diluent: 10% Sucrose” value is on record as “NP”, the “Precipitation in diluent: D5W (5% Dextrose USP Grade Inj)” value is recorded as “NP”, the “Precipitation in diluent: Liposome” value is on record as “P” and the “Precipitation in diluent: PBS pH 7.4” value is recorded as “P”. In data set [4], the “Precipitation in diluent: Water” value was “NP”. The “Precipitation when PBS pH 7.4 added as diluent to the peptide mixture” value in data set [4] (dilution to 400 μg/mL) is reported as “precipitate”. In addition, the “pH of peptides in DMSO/D5W” value in data set [3] was 3.96. For the same substance, the “Dissolution directly in D5W without using DMSO” value in data set [5] is “could not be dissolved”.
The substance H-PIDTSKTDPTVLLFMESQYSQLGQD-OH yielded a solubility in data set [1] greater than 2000 µg/mL.
In data set [1], H-VTLNDMKARQKALVRERERQLA-OH yielded a solubility greater than 2000 µg/mL.
Still for that read-out and setting: next, H-LVDQWRWGVFSGHTPPSRYNFDWWY-OH: less than 2000 µg/mL; H-AVRSPGSPLILEVGSGSGAIS-OH: greater than 2000 µg/mL.
As for “H-SPTEPSTKLPGFDSCGNTEIAERKIKRIYGGFK-OH [CS6720]”, in data set [4], the “Precipitation in diluent: 10% Sucrose” value was “NP”, the “Precipitation in diluent: D5W (5% Dextrose USP Grade Inj)” value is “NP”, the “Precipitation in diluent: Liposome” value was “NP” and the “Precipitation in diluent: PBS pH 7.4” value is reported as “NP”. The “Precipitation in diluent: Water” value in data set [4] is given as “NP”. Moreover, in data set [5], the “Dissolution directly in D5W without using DMSO” value is reported as “could be dissolved directly in D5W”.
As to H-PETGEIQVKTFLDREQRESYELKV-OH, the solubility in data set [1] was greater than 2000 µg/mL.
For H-ESKLFGDPDEFSLAHLLEPFRQYYL-OH, in data set [1], the solubility is less than 2000 µg/mL.
On the same count and under the same terms, next, H-ETYSRSFYPEHSIKEWLIGMELVFV-OH: less than 2000 µg/mL.
As for “H-AHRQGEKQHLLPVFSRLALRLPWRHSVQL-OH [CS6941]”, in data set [2] (Pool 3 + Hiltonol, 4 Hours RT), the “% Impurity” value was 0%, the “% Purity” value is 100%, the “Main Peak” value worked out at 6676.54 and the “Total Impurities” value was determined as 0. Moreover, the “Total Peak” value in data set [2] (Pool 3 + Hiltonol, 4 Hours RT) was determined as 6676.54. Further, in data set [2] (Pool 3 + Hiltonol, 6 Hours RT), the “% Impurity” value turned out to be 0%, the “% Purity” value was 100%, the “Main Peak” value was determined as 7158.29 and the “Total Impurities” value is on record as 0. Also, in data set [2] (Pool 3 + Hiltonol, 6 Hours RT), the “Total Peak” value is given as 7158.29. For the same substance, in data set [2] (T0 Pool 3 + Hiltonol, RP-HPLC), the “% Impurity” value is 0%, the “% Purity” value is 100%, the “Main Peak” value amounted to 7140.91 and the “Total Impurities” value amounted to 0. For the same substance, the “Total Peak” value in data set [2] (T0 Pool 3 + Hiltonol, RP-HPLC) was 7140.91. In data set [3], the “pH of peptides in DMSO/D5W” value turned out to be 3.92; the “pH of peptides in DMSO/D5W/5mM S. Succinate spike” value came to 6.49; the “pH of peptides in DMSO/D5W/5nnM Succinate and Hiltonol” value came out at 6.78.
As for H-ASRALEEKKGNYVVTDHGSCVRA-OH, the solubility in data set [1] was greater than 2000 µg/mL.
Substance H-LCPASRALEEKKGNYVVTDHGS-OH returned a solubility in data set [1] greater than 2000 µg/mL.

In general, solubility refers to the concentration that dissolves in the medium under given conditions.
